# Results taken from patent US10640499B2 (Gilead Sciences, Inc., priority 2016, dated 2020).
# Assays:
# Assay type in all cases: cell-based
# IL12p40 = assay: Cytokine profiling assay in human PBMCs, IL12-p40 detection (MSD); conditions: PBMC; cryopreserved human PBMCs, 24 hours at 37° C.; concentration at half-maximal effect, normalized percent activation
# Description: (§1) Cryopreserved human PBMCs isolated from healthy donors were purchased from StemCell Technologies (Vancouver, Canada). Cell culture medium used was RPMI with L-Glutamine (Mediatech, Manassas, Va.) supplemented with 10% fetal bovine serum (Hyclone, GE Healthcare, Logan, Utah) and Penicillin-Streptomycin (Mediatech). Human TNFα, IL12p40, and IFNα2a 384-well Assay capture plates, standards, buffers and processing reagents were obtained from MesoScale Discovery Technologies (MSD; Rockville, Md.).
# (§2) Cryopreserved human PBMCs (1×10e8 cells/ml) were thawed at 37° C. and resuspended in 25 mL warm cell culture medium. The cells were pelleted at 200×g (Beckman Avanti J-E) for 5 min and resuspended in 20 mL of fresh culture media. Cells were counted using a Cellometer (Nexcelcom Bioscience), adjusted to 2×10e6 cells, and incubated for 2 hours in an incubator set at 37° C., 5% CO2 to recover from cryopreservation. Compounds were serially diluted in DMSO at half-log steps to generate a 10-point dose range. Using a Bravo pipette equipped with a 384 well head (Agilent), 0.4 μL of compound was transferred to each well of a 384 well black, clear bottom plate (Greiner Bio-One, Germany) containing 30 μL of cell culture medium. Recovered PBMCs were then dispensed into the assay plate at 50 μL per well (100 k cells/well) using the MicroFlow multichannel dispenser (Biotek). Final DMSO concentration was 0.5%. DMSO was used as the negative control. The plates were incubated for 24 hours at 37° C. PBMCs in the assay plate were pelleted by centrifugation (Beckman Avanti J-E) at 200×g for 5 min.
# (§3) Using a Biomek FX 384 well pipetting station (Beckman), conditioned culture medium (CCM) from the assay plate was transferred to MSD capture plates customized for each cytokine. For IFNα and IL12-p40 detection, 25 μL and 20 μL of CCM were added directly to each capture plate, respectively. For TNFα detection, CCM was diluted 1:9 in fresh culture medium, and 20 μL of diluted CCM was used. Serially diluted calibration standards for each cytokine were used to generate standard curves and establish assay linearity. The plates were sealed and incubated overnight at 4° C. in a plate shaker (Titer Plate) set at 200 rpm. On the following day, antibodies specific for each cytokine were diluted 1:50 in MSD Diluent 100 antibody dilution buffer. Diluted antibodies were added to corresponding capture plates at 10 μL/well, and incubated at RT for 1-2 hrs in the shaker. The plates were washed with PBST buffer (3×, 60 μl/well) using a Biotek Multiflow plate washer. MSD Read Buffer diluted to 2× in deionized water and 35 μL/well was added via Biomek FX instrument. The plates were read immediately in a MSD6000 reader. Data were normalized to positive and negative controls in each assay plate. AC50 values represent compound concentrations at half-maximal effect based on normalized percent activation and calculated by non-linear regression using Pipeline Pilot software (Accelrys, San Diego, Calif.).
# TNFα = assay: Cytokine profiling assay in human PBMCs, TNFα detection (MSD); conditions: PBMC; cryopreserved human PBMCs, 24 hours at 37° C.; concentration at half-maximal effect, normalized percent activation; read-out: TNFa AC50
# Description: as §1, §2, §3
# IFNα = assay: Cytokine profiling assay in human PBMCs, IFNα detection (MSD); conditions: PBMC; cryopreserved human PBMCs, 24 hours at 37° C.; concentration at half-maximal effect, normalized percent activation; read-out: IFNa AC50
# Description: as §1, §2, §3
Compound,AC50 (IL12p40) [µM],AC50 (TNFα) [µM],AC50 (IFNα) [µM]
"CCCC[C@](C)(CNC(C)=O)Nc1nc(N)nc2cc(CC)cnc12 [Compound 1, (R)—N-(2-((2-amino-7-ethylpyrido[3,2-d]pyrimidin-4-yl)amino)-2-methylhexyl)acetamide]",0.0604,0.0853,44.6
"CCCC[C@H](CNC(C)=O)Nc1nc(N)nc2cc(F)cnc12 [Compound 8, (R)—N-(2-((2-amino-7-fluoropyrido[3,2-d]pyrimidin-4-yl)amino)hexyl)acetamide]",1.48,1.88,> 50
"CCCC[C@](C)(CNC(C)=O)Nc1nc(N)nc2cc(OCC)cnc12 [Compound 5, (R)—N-(2-((2-amino-7-ethoxypyrido[3,2-d]pyrimidin-4-yl)amino)-2-methylhexyl)acetamide]",0.0484,0.0812,> 50
"CCCC[C@](C)(CNC(C)=O)Nc1nc(N)nc2cc(C(C)C)cnc12 [Compound 2, (R)—N-(2-((2-amino-7-isopropylpyrido[3,2-d]pyrimidin-4-yl)amino)-2-methylhexyl)acetamide]",0.209,0.262,35
CCCCCC[C@](C)(CNC(C)=O)Nc1nc(N)nc2cccnc12 [Compound 7],2.67,4.19,> 50
"CCC[C@](C)(CNC(C)=O)Nc1nc(N)nc2cccnc12 [Compound 6, (R)—N-(2-((2-aminopyrido[3,2-d]pyrimidin-4-yl)amino)-2-methylpentyl)acetamide]",1.24,1.46,> 50
"CCCC[C@](C)(CNC(C)=O)Nc1nc(N)nc2cc(OC)cnc12 [Compound 4, (R)—N-(2-((2-amino-7-methoxypyrido[3,2-d]pyrimidin-4-yl)amino)-2-methylhexyl)acetamide]",0.12,0.122,> 50
